This passage reports IC50 results from PubChem BioAssay AID602151 (Vanderbilt Specialized Chemistry Center, 2011).

The target in the experiment is Phospholipase D1 (Homo sapiens) (UniProt Q13393). The experiment in a line: PLD1 inhibitor potency in cells, dose response (AID 602151). The following applies: cellular PLD1 activity assay.
Chain of Phospholipase D1 (Homo sapiens) (Q13393 whole entry, looked up): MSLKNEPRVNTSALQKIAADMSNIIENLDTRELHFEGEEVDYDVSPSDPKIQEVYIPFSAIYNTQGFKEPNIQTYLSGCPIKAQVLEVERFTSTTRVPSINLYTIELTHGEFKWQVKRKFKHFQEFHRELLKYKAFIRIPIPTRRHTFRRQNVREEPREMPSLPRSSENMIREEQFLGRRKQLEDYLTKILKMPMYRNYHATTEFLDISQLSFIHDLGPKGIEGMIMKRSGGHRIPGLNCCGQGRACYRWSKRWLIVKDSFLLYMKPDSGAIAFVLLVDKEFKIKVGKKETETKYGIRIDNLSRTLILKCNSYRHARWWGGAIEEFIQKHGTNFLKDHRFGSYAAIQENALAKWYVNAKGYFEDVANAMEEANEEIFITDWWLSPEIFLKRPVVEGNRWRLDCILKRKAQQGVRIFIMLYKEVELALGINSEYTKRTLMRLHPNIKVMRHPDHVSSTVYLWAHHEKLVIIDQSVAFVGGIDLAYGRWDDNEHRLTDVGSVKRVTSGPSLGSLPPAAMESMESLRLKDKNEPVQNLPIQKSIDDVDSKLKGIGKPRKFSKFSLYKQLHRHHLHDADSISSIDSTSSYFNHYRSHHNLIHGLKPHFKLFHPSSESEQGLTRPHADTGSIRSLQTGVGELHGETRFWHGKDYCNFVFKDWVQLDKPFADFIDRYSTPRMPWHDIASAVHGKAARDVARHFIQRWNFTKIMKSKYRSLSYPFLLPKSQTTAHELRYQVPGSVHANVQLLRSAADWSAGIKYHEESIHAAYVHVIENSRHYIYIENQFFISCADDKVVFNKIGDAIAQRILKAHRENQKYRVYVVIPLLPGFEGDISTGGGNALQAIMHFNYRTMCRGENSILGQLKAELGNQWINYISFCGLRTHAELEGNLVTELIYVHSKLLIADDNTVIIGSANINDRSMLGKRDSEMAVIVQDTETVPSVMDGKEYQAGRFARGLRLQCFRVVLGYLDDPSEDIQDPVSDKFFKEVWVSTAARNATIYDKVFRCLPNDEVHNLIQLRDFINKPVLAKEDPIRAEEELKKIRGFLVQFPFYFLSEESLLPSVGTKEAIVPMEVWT
Chain of Phospholipase D1 (Homo sapiens) (Q13393 whole entry, looked up): as above

As for `O=C(NCCN1CCC2(CC1)C(=O)NCN2c1cccc(Cl)c1)c1ccc2ccccc2c1`, the IC50 is 1200 nM.

As to `O=C(NCCN1CCC2(CC1)C(=O)NCN2c1ccc(Br)cc1)c1cc2cc(F)ccc2[nH]1`, the IC50 is 2660 nM.

As to `O=C(NCCN1CCC2(CC1)C(=O)NCN2c1ccccc1)c1cnc2ccccc2c1`, the IC50 is 1900 nM.

Regarding `O=C(NCCN1CCC2(CC1)C(=O)NCN2c1cccc(Cl)c1)c1cc2cc(F)ccc2[nH]1`, the IC50 is 250 nM.

As for `O=C(NCCN1CCC2(CC1)C(=O)NCN2c1ccccc1)c1cc2ccccc2s1`, the half-maximal inhibitory concentration (IC50) was 150 nM.

Take `O=C(NCCN1CCC2(CC1)C(=O)NCN2c1ccc(F)cc1)c1ccc(F)cc1`: the concentration for half-maximal inhibition (IC50) was 14000 nM.

Consider `O=C(NCCN1CCC2(CC1)C(=O)NCN2c1cccc(Cl)c1)c1ccc(F)cc1`, for which the IC50 is 3470 nM.

Regarding `O=C(NCCN1CCC2(CC1)C(=O)NCN2c1cccc(Cl)c1)c1cnc2ccccc2c1`, the IC50 was 870 nM.

Consider `O=C(C#Cc1ccccc1)NCCN1CCC2(CC1)C(=O)NCN2c1ccccc1`, for which the half-inhibitory concentration (IC50) was 2130 nM.

Turning to `Cc1cccc(C(=O)N[C@@H](C)CN2CCC3(CC2)C(=O)NCN3c2ccccc2)c1`, the IC50 was 3400 nM.

As for `COc1cc(C(=O)NCCN2CCC3(CC2)C(=O)NCN3c2ccccc2)ccc1N`, the concentration for half-maximal inhibition (IC50) was 5900 nM.

For `C[C@@H](CN1CCC2(CC1)C(=O)NCN2c1ccccc1)NC(=O)c1ccc(F)c(F)c1`, the IC50 was 150 nM.

`O=C(NCCN1CCC2(CC1)C(=O)NCN2c1ccc(F)c(F)c1)c1ccc2ccccc2c1`: the concentration for half-maximal inhibition (IC50) is 2810 nM.

Take `O=C(NCCN1CCC2(CC1)C(=O)NCN2c1ccc(F)cc1)c1ccc2ccccc2c1`: the half-inhibitory concentration (IC50) was 1700 nM.

As for `O=C(NCCN1CCC2(CC1)C(=O)NCN2c1ccc(Br)cc1)c1ccc2ccccc2c1`, the IC50 was 5900 nM.

Regarding `O=C(NCCN1CCC2(CC1)C(=O)NCN2c1ccc(F)cc1)c1cc2cc(F)ccc2[nH]1`, the IC50 is 290 nM.

As to `C[C@@H](CN1CCC2(CC1)C(=O)NCN2c1cccc(F)c1)NC(=O)c1ccc2ccccc2c1`, the concentration for half-maximal inhibition (IC50) is 10 nM.

`O=C(NCCN1CCC2(CC1)C(=O)NCN2c1ccc(F)c(F)c1)c1cc2cc(F)ccc2[nH]1`: the half-maximal inhibitory concentration (IC50) is 390 nM.

Consider `O=C(NCCN1CCC2(CC1)C(=O)NCN2c1ccc(F)c(F)c1)c1cnc2ccccc2c1`, for which the IC50 is 2060 nM.

In the case of `O=C(NCCN1CCC2(CC1)C(=O)NCN2c1ccc(Cl)cc1)c1cc2cc(F)ccc2[nH]1`, the half-maximal inhibitory concentration (IC50) was 335 nM.

For `O=C(NCCN1CCC2(CC1)C(=O)NCN2c1ccc(F)c(F)c1)c1ccc(F)cc1`, the IC50 was 5780 nM.

Turning to `O=C(NCCN1CCC2(CC1)C(=O)NCN2c1ccc(F)cc1)c1cnc2ccccc2c1`, the concentration for half-maximal inhibition (IC50) is 2000 nM.

Regarding `O=C(NCCN1CCC2(CC1)C(=O)NCN2c1ccc(Br)cc1)c1cnc2ccccc2c1`, the IC50 was 2700 nM.

With `O=C(NCCN1CCC2(CC1)C(=O)NCN2c1ccc(Cl)cc1)c1ccc(F)cc1`, the IC50 is 5590 nM.

`O=C(NCCN1CCC2(CC1)C(=O)NCN2c1cccc(F)c1)c1cc2cc(F)ccc2[nH]1`: the IC50 is 210 nM.

Consider `O=C(NCCN1CCC2(CC1)C(=O)NCN2c1ccc(Br)cc1)c1ccc(F)cc1`, for which the concentration for half-maximal inhibition (IC50) was 10000 nM.

Consider `O=C(NCCN1CCC2(CC1)C(=O)NCN2c1cccc(F)c1)c1cnc2ccccc2c1`, for which the IC50 was 2500 nM.

As for `O=C(NCCN1CCC2(CC1)C(=O)NCN2c1ccc(Cl)cc1)c1cnc2ccccc2c1`, the 50% inhibitory concentration (IC50) was 3500 nM.

Take `O=C(NCCN1CCC2(CC1)C(=O)NCN2c1ccc(Cl)cc1)c1ccc2ccccc2c1`: the IC50 is 2270 nM.

The IC50 is the concentration needed to halve the response being measured.
